Reference: publication PMC3448645, “Functional Studies of ssDNA Binding Ability of MarR Family Protein TcaR from Staphylococcus epidermidis” (PLoS ONE, 2012)

Tests used:
TcaR [1] = biological target: T1, TcaR (Staphylococcus epidermidis, UniProt Q5HLN6); assay: EMSA, inhibition of TcaR-GC33 ssDNA complex; assay type: binding; details: 1 uM GC33 ssDNA, 2 uM TcaR dimer, 2 or 20 uM antibiotic, pH 8.0, room temperature
T1 construct: homodimer

TcaR [2] = biological target: T1, TcaR; assay: EMSA, inhibition of TcaR-GC33 ssDNA complex; also SPR; assay type: binding; details: 1 uM GC33 ssDNA, 2 uM TcaR dimer, 2 or 20 uM antibiotic, pH 8.0, room temperature; SPR: 64 nM TcaR, 640 nM antibiotic, pH 7.5, 25 °C

| Compound | EMSA, inhibition of TcaR-GC33 ssDNA complex (TcaR [1]) | EMSA, inhibition of TcaR-GC33 ssDNA complex; also SPR (TcaR [2]) |
| --- | --- | --- |
| O=C(N[C@H](CO)[C@H](O)c1ccc([N+](=O)[O-])cc1)C(Cl)Cl [chloramphenicol] | kanamycin, chloramphenicol and gentamycin interfered with the ssDNA (GC33) binding activity of TcaR | – |
| NC[C@H]1O[C@H](O[C@H]2[C@H](O)[C@@H](O[C@H]3O[C@H](CO)[C@@H](O)[C@H](N)[C@H]3O)[C@H](N)C[C@@H]2N)[C@H](O)[C@@H](O)[C@@H]1O [kanamycin] | – | kanamycin, chloramphenicol and gentamycin interfered with the ssDNA (GC33) binding activity of TcaR |
